Converted amounts (≈) assume the structure as drawn. The source made the active and inactive calls. The rule behind the calls is not given here. Peptide text beside a SMILES is read from it.
Tests used:
Staphylococcus aureus [1] = experiment: Antibacterial activity against Staphylococcus aureus ATCC 29213 incubated overnight by standard microtiter dilution method; assay type: functional
Staphylococcus aureus [2] = experiment: Antibacterial activity against methicillin-resistant Staphylococcus aureus ATCC 43300 incubated overnight by standard microtiter dilution method; assay type: functional
[3] = test system: Staphylococcus epidermidis; experiment: Antibacterial activity against methicillin-resistant Staphylococcus epidermidis ATCC 12228 incubated overnight by standard microtiter dilution method; assay type: functional
Enterococcus faecalis = experiment: Antibacterial activity against Enterococcus faecalis ATCC 29212 incubated overnight by standard microtiter dilution method; assay type: functional
Escherichia coli = experiment: Antibacterial activity against Escherichia coli O157:H7 CICC 21530 incubated overnight by standard microtiter dilution method; assay type: functional
Salmonella paratyphi = experiment: Antibacterial activity against Salmonella paratyphi A CICC 21501 incubated overnight by standard microtiter dilution method; assay type: functional, Salmonella enterica subsp. enterica serovar Paratyphi A; settings: Salmonella enterica
[4] = test system: Salmonella enterica subsp. enterica serovar Paratyphi B; experiment: Antibacterial activity against Salmonella paratyphi B CICC 21495 incubated overnight by standard microtiter dilution method; assay type: functional
[5] = Antibacterial activity against Salmonella paratyphi C CICC 21512 incubated overnight by standard microtiter dilution method; assay type: functional, Salmonella enterica subsp. enterica serovar Paratyphi C; settings: Salmonella enterica
[6] = Antibacterial activity against Salmonella enterica subsp. enterica serovar Choleraesuis ATCC 13312 incubated overnight by standard microtiter dilution method; assay type: functional
[7] = Antibacterial activity against Salmonella enterica subsp. enterica serovar Choleraesuis CICC 21493 incubated overnight by standard microtiter dilution method; assay type: functional
Salmonella enteritidis = experiment: Antibacterial activity against Salmonella enteritidis CICC 21527 incubated overnight by standard microtiter dilution method; assay type: functional, Salmonella enterica subsp. enterica serovar Enteritidis; settings: Salmonella enterica
[8] = Antibacterial activity against Salmonella wandsworth CICC 21504 incubated overnight by standard microtiter dilution method; assay type: functional, Salmonella enterica subsp. enterica serovar Wandsworth; settings: Salmonella enterica
Salmonella typhimurium [9] = experiment: Antibacterial activity against Salmonella typhimurium CICC 21483 incubated overnight by standard microtiter dilution method; assay type: functional, Salmonella enterica subsp. enterica serovar Typhimurium; settings: Salmonella enterica
Salmonella typhimurium [10] = experiment: Antibacterial activity against Salmonella typhimurium CICC 21913 incubated overnight by standard microtiter dilution method; assay type: functional, Salmonella enterica subsp. enterica serovar Typhimurium; settings: Salmonella enterica
[11] = Antibacterial activity against Salmonella blockley CICC 21489 incubated overnight by standard microtiter dilution method; assay type: functional, Salmonella enterica subsp. enterica serovar Blockley; settings: Salmonella enterica
[12] = Antibacterial activity against Salmonella dublin CICC 21497 incubated overnight by standard microtiter dilution method; assay type: functional, Salmonella enterica subsp. enterica serovar Dublin; settings: Salmonella enterica
Salmonella typhimurium [13] = experiment: Antibacterial activity against Salmonella typhimurium DT104 ATCC 700408 incubated overnight by standard microtiter dilution method; assay type: functional, Salmonella enterica subsp. enterica serovar Typhimurium; settings: Salmonella enterica
Candida albicans = experiment: Antifungal activity against Candida albicans ATCC 10231 incubated overnight by standard microtiter dilution method; assay type: functional
Erythrocyte = experiment: Hemolytic activity in human Red blood cells assessed as hemolysis incubated for 1 hrs by absorbance based microplate reader analysis; assay type: toxicity, cell-based
Salmonella typhimurium [14] = experiment: Antibacterial activity against Salmonella typhimurium DT104 in the presence of NaCl by MH broth based assay; assay type: functional, Salmonella enterica subsp. enterica serovar Typhimurium; settings: Salmonella enterica
Salmonella typhimurium [15] = experiment: Antibacterial activity against Salmonella typhimurium DT104 in the presence of KCl by MH broth based assay; assay type: functional, Salmonella enterica subsp. enterica serovar Typhimurium; settings: Salmonella enterica
Salmonella typhimurium [16] = experiment: Antibacterial activity against Salmonella typhimurium DT104 in the presence of NH4Cl by MH broth based assay; assay type: functional, Salmonella enterica subsp. enterica serovar Typhimurium; settings: Salmonella enterica
Salmonella typhimurium [17] = experiment: Antibacterial activity against Salmonella typhimurium DT104 in the presence of CaCl2 by MH broth based assay; assay type: functional, Salmonella enterica subsp. enterica serovar Typhimurium; settings: Salmonella enterica
Salmonella typhimurium [18] = experiment: Antibacterial activity against Salmonella typhimurium DT104 in the presence of MgCl2 by MH broth based assay; assay type: functional, Salmonella enterica subsp. enterica serovar Typhimurium; settings: Salmonella enterica
Salmonella typhimurium [19] = experiment: Antibacterial activity against Salmonella typhimurium DT104 in the presence of FeCl3 by MH broth based assay; assay type: functional, Salmonella enterica subsp. enterica serovar Typhimurium; settings: Salmonella enterica
Salmonella typhimurium [20] = experiment: Antibacterial activity against Salmonella typhimurium DT104 in the presence 25% inactivated mouse serum by MH broth based assay; assay type: functional, Salmonella enterica subsp. enterica serovar Typhimurium; settings: Salmonella enterica
Salmonella typhimurium [21] = experiment: Antibacterial activity against Salmonella typhimurium DT104 in the presence 50% inactivated mouse serum by MH broth based assay; assay type: functional, Salmonella enterica subsp. enterica serovar Typhimurium; settings: Salmonella enterica
[22] = Hemolytic activity in human Red blood cells assessed as hemolysis at 128 ug/ml incubated for 1 hrs by absorbance based microplate reader analysis relative to control; assay type: toxicity, cell-based, Erythrocyte; settings: red blood cells (erythrocytes), at 128 µg/mL, read-out: Activity
[23] = Cytotoxicity against mouse RAW264.7 cells assessed as cell viability at 128 ug/ml incubated for 24 hrs by MTT assay; assay type: toxicity, cell-based; settings: at 128 µg/mL, read-out: Activity
Salmonella typhimurium [24] = experiment: Antibacterial activity against multi-drug resistant Salmonella typhimurium DT104 assessed as inhibition of bacterial growth at 0.5 to 2 times of MIC by MH agar based serial dilution method; assay type: functional, organism-based; settings: Salmonella enterica subsp. enterica serovar Typhimurium, time <= 120.0 min, TDE = time-dependent effect
Salmonella typhimurium [25] = experiment: Antibacterial activity against multi-drug resistant Salmonella typhimurium DT104 assessed as inhibition of bacterial growth measured upto 120 mins by MH agar based serial dilution method; assay type: functional, organism-based; settings: Salmonella enterica subsp. enterica serovar Typhimurium
Lipopolysaccharide (LPS) = experiment: Displacement of BODIPY-TR-cadaverine from Salmonella typhimurium LPS assessed as increase in fluorescence intensity by fluorescence spectrophotometric analysis; settings: Salmonella enterica subsp. enterica serovar Typhimurium; dose 0.25-8 µg/ml
RAW264.7 [26] = experiment: Inhibition of LPS-stimulated NO production in mouse RAW264.7 cells incubated for 24 hrs by Griess reagent based analysis; assay type: functional, cell-based; settings: dose 1-128 µg/ml
RAW264.7 [27] = experiment: Inhibition of LPS-stimulated TNF-alpha production in mouse RAW264.7 cells at 1 to 128 ug/ml incubated for 24 hrs by ELISA analysis; assay type: functional, cell-based; settings: dose 1-128 µg/ml
RAW264.7 [28] = experiment: Inhibition of LPS-stimulated IL-1beta production in mouse RAW264.7 cells at 1 to 128 ug/ml incubated for 24 hrs by ELISA analysis; assay type: functional, cell-based; settings: dose 1-128 µg/ml
RAW264.7 [29] = experiment: Inhibition of LPS-stimulated IL-8 production in mouse RAW264.7 cells at 1 to 128 ug/ml incubated for 24 hrs by ELISA analysis; assay type: functional, cell-based; settings: dose 1-128 µg/ml
Cell membrane = experiment: Disruption of membrane integrity in Salmonella typhimurium DT104 assessed as increase in fluorescence intensity at 0.5 to 2 times of MIC incubated for 15 mins by PI staining based flow cytometric analysis; assay type: subcellular; settings: Salmonella enterica subsp. enterica serovar Typhimurium

Row | SMILES | MIC (Staphylococcus aureus [1]) [µg/mL] | MIC (Staphylococcus aureus [2]) [µg/mL] | MIC [3] [µg/mL] | MIC (Enterococcus faecalis) [µg/mL] | MIC (Escherichia coli) [µg/mL] | MIC (Salmonella paratyphi) [µg/mL] | MIC [4] [µg/mL] | MIC [5] [µg/mL] | MIC [6] [µg/mL] | MIC [7] [µg/mL] | MIC (Salmonella enteritidis) [µg/mL] | MIC [8] [µg/mL] | MIC (Salmonella typhimurium [9]) [µg/mL] | MIC (Salmonella typhimurium [10]) [µg/mL] | MIC [11] [µg/mL] | MIC [12] [µg/mL] | MIC (Salmonella typhimurium [13]) [µg/mL] | MIC (Candida albicans) [µg/mL] | MHC (Erythrocyte) [µg/mL] | MIC (Salmonella typhimurium [14]) [µg/mL] | other results
1 | CC(C)C[C@H](NC(=O)[C@H](CCCCN)NC(=O)[C@H](CC(C)C)NC(=O)[C@H](CCCCN)NC(=O)[C@H](CC(C)C)NC(=O)[C@H](CCCCN)NC(=O)[C@H](CS)NC(=O)CNC(=O)[C@H](CO)NC(=O)[C@H](CCCCN)NC(=O)[C@@H](NC(=O)[C@H](CS)NC(=O)[C@H](CCCCN)NC(=O)[C@H](CC(C)C)NC(=O)[C@H](CCCCN)NC(=O)[C@H](CC(C)C)NC(=O)[C@H](CCCCN)NC(=O)[C@@H](N)CC(C)C)[C@@H](C)O)C(N)=O (H-LKLKLKCTKSGCKLKLKL-NH2) | > 128 | > 128 | 32 (≈ 15.6 µM) | 64 (≈ 31.3 µM) | 8 (≈ 3.91 µM) | > 128 | 4 (≈ 1.96 µM) | 4 (≈ 1.96 µM) | 4 (≈ 1.96 µM) | 128 (≈ 62.6 µM) | 64 (≈ 31.3 µM) | 128 (≈ 62.6 µM) | 128 (≈ 62.6 µM) | > 128 | 128 (≈ 62.6 µM) | 32 (≈ 15.6 µM) | 64 (≈ 31.3 µM) | 128 (≈ 62.6 µM) | 64 | > 128 | MIC (Salmonella typhimurium [15]): > 128 µg/mL; MIC (Salmonella typhimurium [16]): > 128 µg/mL; MIC (Salmonella typhimurium [17]): > 128 µg/mL; MIC (Salmonella typhimurium [18]): > 128 µg/mL; MIC (Salmonella typhimurium [19]): > 128 µg/mL; MIC (Salmonella typhimurium [20]): > 128 µg/mL; MIC (Salmonella typhimurium [21]): > 128 µg/mL; hemolysis at 1 h, 128 ug/ml [22]: 16.4%; viability at 24 h, 128 ug/ml [23]: 14.2%; Activity (Salmonella typhimurium [24]): Tde; Activity (Salmonella typhimurium [25]): Dose-Dependent Effect; Activity (Lipopolysaccharide (LPS)): Dose-Dependent Effect; inhibition (RAW264.7 [26]): Dose-Dependent Effect; inhibition (RAW264.7 [27]): Active; inhibition (RAW264.7 [28]): Active; inhibition (RAW264.7 [29]): Active; Activity (Cell membrane): Active
2 | CC(C)[C@H](N)C(=O)N[C@@H](CCCCN)C(=O)N[C@H](C(=O)N[C@@H](CCCCN)C(=O)N[C@H](C(=O)N[C@@H](CCCCN)C(=O)N[C@@H](CS)C(=O)N[C@H](C(=O)N[C@@H](CCCCN)C(=O)N[C@@H](CO)C(=O)NCC(=O)N[C@@H](CS)C(=O)N[C@@H](CCCCN)C(=O)N[C@H](C(=O)N[C@@H](CCCCN)C(=O)N[C@H](C(=O)N[C@@H](CCCCN)C(=O)N[C@H](C(N)=O)C(C)C)C(C)C)C(C)C)[C@@H](C)O)C(C)C)C(C)C (H-VKVKVKCTKSGCKVKVKV-NH2) | > 128 | > 128 | 4 (≈ 2.04 µM) | 4 (≈ 2.04 µM) | 2 (≈ 1.02 µM) | 2 (≈ 1.02 µM) | 1 (≈ 0.51 µM) | 2 (≈ 1.02 µM) | 0.5 (≈ 0.255 µM) | 32 (≈ 16.3 µM) | 32 (≈ 16.3 µM) | 4 (≈ 2.04 µM) | 64 (≈ 32.6 µM) | > 128 | 16 (≈ 8.16 µM) | 4 (≈ 2.04 µM) | 32 (≈ 16.3 µM) | 8 (≈ 4.08 µM) | > 128 | > 128 | MIC (Salmonella typhimurium [15]): 128 µg/mL; MIC (Salmonella typhimurium [16]): 64 µg/mL; MIC (Salmonella typhimurium [17]): > 128 µg/mL; MIC (Salmonella typhimurium [18]): > 128 µg/mL; MIC (Salmonella typhimurium [19]): 64 µg/mL; MIC (Salmonella typhimurium [20]): > 128 µg/mL; MIC (Salmonella typhimurium [21]): > 128 µg/mL; hemolysis at 1 h, 128 ug/ml [22]: < 10%; viability at 24 h, 128 ug/ml [23]: 39.8%; Activity (Lipopolysaccharide (LPS)): Dose-Dependent Effect; inhibition (RAW264.7 [26]): Dose-Dependent Effect; inhibition (RAW264.7 [27]): Active; inhibition (RAW264.7 [28]): Active; inhibition (RAW264.7 [29]): Active; Activity (Cell membrane): Active

Reference: ChEMBL document CHEMBL5352429, “Designed symmetrical β-hairpin peptides for treating multidrug-resistant salmonella typhimurium infections” (Eur J Med Chem, 2022)
